Where “and” joins values, the source holds several entries; their conditions need not be identical. Equal values may be shown once.
How the values were obtained:
[1] = target: BCL-2 (binding to BAK peptide) (Homo sapiens, UniProt P10415); assay: SPR (Biacore) solution inhibition assay, BCL-2 binding to immobilized BAK peptide; conditions: biotinylated BAK peptide surface, 56 nM BCL-2, 25° C.; range = high and low IC50 values from multiple experiments; read-out: BCL2_SPR IC50 BAK
Source text: (§1) The present method includes utility of a Surface plasmon resonance (SPR)-based biosensor (Biacore™′ GE Healthcare, Uppsala, Sweden) to characterize BCL-2 inhibitors.
(§2) Biacore™ utilizes the phenomenon of surface plasmon resonance (SPR) to detect and measure binding interactions. In a typical Biacore experiment, one of the interacting molecules (ligand) is immobilized on a flexible dextran matrix while the interacting partner (analyte) is allowed to flow across that surface. A binding interaction results in an increase in mass on the sensor surface and a corresponding direct change in the refractive index of the medium in the vicinity of the sensor surface. Changes in refractive index or signal are recorded in resonance units (R.U.) Signal changes due to association and dissociation of complexes are monitored in a non-invasive manner, continuously and in real-time, the results of which are reported in the form of a sensorgram.
(§3) The SPR assay is configured to examine solution inhibition of BCL-2 binding to peptide derivatized sensor surfaces to generate IC50 values as a measure of inhibitor potency.
(§4) Biacore™ A100 (GE Healthcare, Uppsala, Sweden) was used to conduct all experiments reported herein. Sensor surface preparation and all interaction analyses experiments were performed at 25° C. Reagents were purchased from GE Healthcare. Running buffer containing 10 mM Hepes, pH7.4, 150 mM sodium chloride, 1.25 mM Dithiothreitol, 3% Dimethyl sulfoxide and 0.05% polysorbate 20 were utilized throughout all analyses.
(§5) Biotinylated BAK, BAD and NOXA peptides were diluted to 10 nM in running buffer and captured onto a sensor surface pre-derivatized with streptavidin (sensor chip SA) to peptide surface densities in the range 50-100 R.U. Peptide captured surfaces were blocked with 500 μM PEO2-Biotin.
(§6) Interaction analyses were performed by first equilibrating each sample within a 6 point three fold compound dilution series in the range 16 μM to […] with 56 nM BCL-2 for one hour during instrument start-up procedures. Protein compound mixtures were then injected over each peptide surface in parallel for 60 seconds at a flow-rate of 30 μL/min. 56 nM BCL-2 control samples were also prepared and run at regular intervals during the assay. Surface regeneration was performed at the end of each analysis cycle by two 30 second injections of 10 mM Glycine, pH 2.5, 1M Sodium Chloride, 0.05% polysorbate 20. Samples and control compound samples were run in duplicate and controls are also run at regular intervals during the assay to monitor surface and assay performance.
(§7) Data analyses are carried out using Biacore™ A100 evaluation software v1.1 to validate assay quality. Binding level report points were used relative to BCL-2 control samples to calculate % inhibition values for each compound protein mixture. […] The range of data shown in table 1 represents the high and low IC50 values obtained from multiple experiments.

[2] = target: BCL-2 (binding to BAD peptide) (Homo sapiens, UniProt P10415); assay: SPR (Biacore) solution inhibition assay, BCL-2 binding to immobilized BAD peptide; conditions: biotinylated BAD peptide surface, 56 nM BCL-2, 25° C.; range = high and low IC50 values from multiple experiments; read-out: BCL2_SPR IC50 BAD
Source text: as §1, §2, §3, §4, §5, §6, §7

BCL-2 (binding to BAK peptide), sequence (P10415 whole entry): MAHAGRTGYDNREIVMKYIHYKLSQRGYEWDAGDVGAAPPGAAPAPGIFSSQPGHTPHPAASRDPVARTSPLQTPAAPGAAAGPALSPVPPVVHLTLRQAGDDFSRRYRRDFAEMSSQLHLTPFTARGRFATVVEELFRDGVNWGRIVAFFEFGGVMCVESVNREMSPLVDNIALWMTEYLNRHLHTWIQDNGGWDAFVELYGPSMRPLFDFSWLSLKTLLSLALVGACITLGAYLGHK
BCL-2 (binding to BAD peptide), sequence (P10415 whole entry): as above

IC50 [1] | IC50 [2] | Structure (SMILES)
0.0634 to 0.0722 µM | 0.0676 to 0.0678 µM | CCCCN(CCCC)C(=O)c1cc(C)n(-c2ccc(NC(=O)C(Cc3ccccc3)C(=O)O)cc2C(=O)N2Cc3ccccc3C[C@H]2CO)n1 (stereo partly drawn) [Example 25]
0.393 to 0.448 µM | 0.438 to 0.511 µM | CCCCN(CCCC)C(=O)c1cc(C)n(-c2ccc(NC(=O)c3cc(OC)ccc3O)cc2C(=O)N2Cc3ccccc3C[C@H]2CO)n1 [Example 153]
0.0485 to 0.0496 µM | 0.0568 to 0.0588 µM | CCCCN(CCCC)C(=O)c1cc(C)n(-c2ccc(NC(=O)C(OC)c3ccccc3)cc2C(=O)N2Cc3ccccc3C[C@H]2CO)n1 (stereo partly drawn) [Example 72]
0.0532 to 0.059 µM | 0.0666 to 0.07 µM | CCCCN(CCCC)C(=O)c1cc(C)n(-c2ccc(NC(=O)Cc3cccc(F)c3)cc2C(=O)C2Cc3ccccc3C[C@H]2CO)n1 (stereo partly drawn) [Example 75]
0.0505 to 0.0513 µM | 0.0598 to 0.0599 µM | CCCCN(CCCC)C(=O)c1cc(C)n(-c2ccc(NC(=O)Cc3cccc(Cl)c3)cc2C(=O)N2Cc3ccccc3C[C@H]2CO)n1 [Example 76]
0.567 to 0.575 µM | 0.619 to 0.892 µM | CCCCN(CCCC)C(=O)c1cc(C)n(-c2ccc(NC(=O)OC)cc2C(=O)N2Cc3ccccc3C[C@H]2CO)n1 [Example 12]
0.0502 to 0.0531 µM | 0.0607 to 0.0614 µM | CCCCN(CCCC)C(=O)c1cc(C)n(-c2ccc(NC(=O)CCC3COc4ccccc43)cc2C(=O)N2Cc3ccccc3C[C@H]2CO)n1 (stereo partly drawn) [Example 130]
0.0585 to 0.0709 µM | 0.0619 to 0.0668 µM | CCCCN(CCCC)C(=O)c1cc(C)n(-c2ccc(NC(=O)C(CC(=O)N3CCCC3)c3ccccc3)cc2C(=O)N2Cc3ccccc3C[C@H]2CO)n1 (stereo partly drawn) [Example 27]
0.0581 to 0.0593 µM and 0.0589 to 0.0688 µM | 0.0669 to 0.0677 µM and 0.0698 to 0.0798 µM | CCCCN(CCCC)C(=O)c1cc(C)n(-c2ccc(NC(=O)Cc3ccc4ccccc4c3)cc2C(=O)N2Cc3ccccc3C[C@H]2CN)n1 [Example 54]
0.072 to 0.0747 µM | 0.0935 to 0.0999 µM | CCCCN(CCCC)C(=O)c1cc(C)n(-c2ccc(NC(=O)c3cc(S(N)(=O)=O)ccc3OC)cc2C(=O)N2Cc3ccccc3C[C@H]2CO)n1 [Example 71]
0.139 to 0.153 µM | 0.164 to 0.171 µM | CCCCN(CCCC)C(=O)c1cc(C)n(-c2ccc(NC(=O)Cc3cccnc3)cc2C(=O)N2Cc3ccccc3C[C@H]2CO)n1 [Example 118]
0.241 to 0.251 µM | 0.363 to 0.365 µM | CCCCN(CCCC)C(=O)c1cc(C)n(-c2ccc(NC(=O)CC(=O)O)cc2C(=O)N2Cc3ccccc3C[C@H]2CO)n1 [Example 19]
0.122 to 0.126 µM | 0.155 to 0.158 µM | CCCCN(CCCC)C(=O)c1cc(C)n(-c2ccc(NC(=O)C3=CC(c4ccccc4)NC(=O)N3)cc2C(=O)N2Cc3ccccc3C[C@H]2CO)n1 (stereo partly drawn) [Example 51]
0.204 to 0.205 µM | 0.249 to 0.282 µM | CCCCN(CCCC)C(=O)c1cc(C)n(-c2ccc(NC(=O)c3cn4ccccc4n3)cc2C(=O)N2Cc3ccccc3C[C@H]2CO)n1 [Example 58]
0.291 to 0.325 µM | 0.264 to 0.296 µM | CCCCN(CCCC)C(=O)c1cc(C)n(-c2ccc(NC(=O)CC3CCCCC3)cc2C(=O)N2Cc3ccccc3C[C@H]2CO)n1 [Example 28]
0.0707 to 0.0771 µM | 0.0895 to 0.0929 µM | CCCCN(CCCC)C(=O)c1cc(C)n(-c2ccc(NC(=O)CSc3cc(C)c(Cl)cc3Cl)cc2C(=O)N2Cc3ccccc3C[C@H]2CO)n1 [Example 129]
0.114 to 0.15 µM | 0.13 to 0.167 µM | CCCCN(CCCC)C(=O)c1cc(C)n(-c2ccc(NC(=O)C3CC(=O)N(Cc4ccccc4)C3)cc2C(=O)N2Cc3ccccc3C[C@H]2CO)n1 (stereo partly drawn) [Example 101]
– | 1.33 to 1.47 µM | CCCCN(CCCC)C(=O)c1cc(C)n(-c2ccc(NC(=O)c3ccc(Cl)cc3I)cc2C(=O)N2Cc3ccccc3C[C@H]2CO)n1 [Example 82]
0.111 to 0.144 µM | – | CCCCN(CCCC)C(=O)c1cc(C)n(-c2ccc(NC(=O)C(CC(=O)N(C)C)c3ccccc3)cc2C(=O)N2Cc3ccccc3C[C@H]2CO)n1 (stereo partly drawn) [Example 36]
0.481 to 0.495 µM | – | CCCCN(CCCC)C(=O)c1cc(C)n(-c2ccc(NC(=O)C(C)C)cc2C(=O)N2Cc3ccccc3C[C@H]2CO)n1 [Example 163]

Structure (SMILES) | IC50 [1] | IC50 [2]
CCCCN(CCCC)C(=O)c1cc(C)n(-c2ccc(NC(=O)Oc3ccccc3)cc2C(=O)N2Cc3ccccc3C[C@H]2CO)n1 [Example 10] | 0.283 to 0.308 µM | 0.501 to 0.522 µM

— patent publication US20140357633A1, “COMPOUNDS FOR INHIBITING THE INTERACTION OF BCL2 WITH BINDING PARTNERS” (NOVARTIS AG, priority 2011, published 2014)
